# Reference: paper PMC7422722, “The complete functional characterisation of the terpene synthase family in tomato” (The New Phytologist, 2020)
# Columns and labels:
# Assay type in all cases: biochemical
# [1] = target: T1, TPS47 (Solanum lycopersicum, UniProt K4BEJ5); assay: in vitro assay, headspace SPME GC-MS; settings: product isoprene; 42 °C headspace collection
# T1 construct: gene LOC101258440; recombinant, E. coli (codon-optimised gene made), His-tagged, purified; full length 562 residues; gene on chromosome 3
# T1 sequence (K4BEJ5 1-562): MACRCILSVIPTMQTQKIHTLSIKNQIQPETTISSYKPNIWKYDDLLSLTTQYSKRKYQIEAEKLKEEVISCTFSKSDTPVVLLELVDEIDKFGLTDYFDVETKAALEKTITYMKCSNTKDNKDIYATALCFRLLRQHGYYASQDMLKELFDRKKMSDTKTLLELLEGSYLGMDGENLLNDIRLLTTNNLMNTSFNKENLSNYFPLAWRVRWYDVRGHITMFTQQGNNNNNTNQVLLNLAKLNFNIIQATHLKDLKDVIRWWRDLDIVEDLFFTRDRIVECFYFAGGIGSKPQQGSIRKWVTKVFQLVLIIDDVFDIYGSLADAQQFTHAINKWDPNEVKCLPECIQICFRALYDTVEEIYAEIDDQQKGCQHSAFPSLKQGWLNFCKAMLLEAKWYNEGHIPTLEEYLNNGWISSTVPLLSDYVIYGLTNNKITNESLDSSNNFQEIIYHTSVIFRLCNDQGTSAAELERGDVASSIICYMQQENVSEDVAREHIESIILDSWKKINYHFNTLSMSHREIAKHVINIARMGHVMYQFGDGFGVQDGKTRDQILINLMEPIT
# [2] = target: T2, GGPPS1 (Solanum lycopersicum, UniProt Q1A7T0); assay: in vitro prenyltransferase assay, products hydrolysed, GC-MS; settings: co-substrate IPP; without SSU
# T2 construct: gene GGPS1
# [3] = target: T3, GGPPS2 (Solanum lycopersicum, UniProt Q1A7S9); assay: as above; settings: co-substrate IPP; without SSU
# T3 construct: gene GGPS2
# [4] = target: T4, TPS51 (Solanum lycopersicum, UniProt A0A6H0JLJ2); assay: in vitro assay, GC-MS of products
# T4 construct: recombinant, E. coli (codon-optimised gene made), His-tagged, purified; full length 550 residues; gene on chromosome 7
# T4 sequence (A0A6H0JLJ2 1-550): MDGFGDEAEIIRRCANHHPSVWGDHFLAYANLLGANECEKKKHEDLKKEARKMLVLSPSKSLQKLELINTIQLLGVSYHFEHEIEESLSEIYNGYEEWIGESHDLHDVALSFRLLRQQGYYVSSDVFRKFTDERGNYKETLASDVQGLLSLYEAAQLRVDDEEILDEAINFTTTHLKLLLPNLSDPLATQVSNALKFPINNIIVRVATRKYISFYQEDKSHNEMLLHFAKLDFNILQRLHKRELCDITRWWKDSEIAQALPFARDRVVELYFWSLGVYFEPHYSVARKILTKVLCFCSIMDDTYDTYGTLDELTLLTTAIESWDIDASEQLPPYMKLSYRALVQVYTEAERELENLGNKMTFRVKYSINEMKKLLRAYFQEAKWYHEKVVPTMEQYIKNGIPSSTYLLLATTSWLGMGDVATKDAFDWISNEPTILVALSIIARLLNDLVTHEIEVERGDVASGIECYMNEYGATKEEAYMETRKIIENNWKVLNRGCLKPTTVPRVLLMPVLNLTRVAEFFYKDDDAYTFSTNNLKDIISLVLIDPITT
# [5] = target: T5, TPS27 (Solanum lycopersicum, UniProt G5CV48); assay: in vitro assay, GC-MS of products; settings: product alpha-farnesene
# T5 construct: recombinant, E. coli pET32b or pET28a, His-tagged, purified
# T5 sequence (G5CV48 1-554): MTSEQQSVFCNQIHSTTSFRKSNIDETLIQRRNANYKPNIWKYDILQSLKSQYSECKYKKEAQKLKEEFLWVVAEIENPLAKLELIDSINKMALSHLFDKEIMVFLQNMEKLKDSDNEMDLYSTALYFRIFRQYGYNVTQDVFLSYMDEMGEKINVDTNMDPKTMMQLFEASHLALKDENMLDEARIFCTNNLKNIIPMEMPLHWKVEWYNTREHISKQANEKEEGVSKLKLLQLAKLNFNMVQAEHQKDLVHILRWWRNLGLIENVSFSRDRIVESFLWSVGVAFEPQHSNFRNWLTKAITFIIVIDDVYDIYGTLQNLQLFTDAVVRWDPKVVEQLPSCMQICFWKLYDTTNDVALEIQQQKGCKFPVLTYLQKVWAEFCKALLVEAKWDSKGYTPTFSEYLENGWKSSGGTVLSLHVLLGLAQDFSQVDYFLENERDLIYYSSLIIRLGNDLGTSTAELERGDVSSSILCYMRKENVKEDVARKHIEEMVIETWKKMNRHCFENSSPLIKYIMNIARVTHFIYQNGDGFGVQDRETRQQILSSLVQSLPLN
# [6] = target: T6, TPS52 (Solanum lycopersicum, UniProt A0A6H0JLZ2); assay: in vitro assay, GC-MS of products
# T6 construct: recombinant, E. coli (codon-optimised gene made), His-tagged, purified; full length 551 residues; gene on chromosome 7
# T6 sequence (A0A6H0JLZ2 1-551): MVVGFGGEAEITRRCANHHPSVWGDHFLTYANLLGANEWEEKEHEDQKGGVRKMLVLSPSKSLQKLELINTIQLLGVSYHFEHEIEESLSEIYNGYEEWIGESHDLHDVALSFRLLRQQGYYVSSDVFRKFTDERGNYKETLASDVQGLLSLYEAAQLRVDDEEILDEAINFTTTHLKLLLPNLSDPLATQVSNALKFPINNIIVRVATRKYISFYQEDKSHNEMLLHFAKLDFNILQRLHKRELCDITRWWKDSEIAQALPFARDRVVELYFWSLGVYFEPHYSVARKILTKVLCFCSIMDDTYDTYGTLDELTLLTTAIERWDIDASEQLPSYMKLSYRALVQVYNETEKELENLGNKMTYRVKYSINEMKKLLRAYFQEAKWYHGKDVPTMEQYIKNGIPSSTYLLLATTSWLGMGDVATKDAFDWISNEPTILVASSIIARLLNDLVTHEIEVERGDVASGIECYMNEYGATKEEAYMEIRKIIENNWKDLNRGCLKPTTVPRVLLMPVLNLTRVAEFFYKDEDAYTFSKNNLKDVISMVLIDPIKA
# [7] = target: T7, TPS25 (Solanum lycopersicum, UniProt G5CV49); assay: in vitro assay, GC-MS of products; settings: product mostly beta-ocimene
# T7 construct: recombinant, E. coli pET32b or pET28a, His-tagged, purified
# T7 sequence (G5CV49 1-576): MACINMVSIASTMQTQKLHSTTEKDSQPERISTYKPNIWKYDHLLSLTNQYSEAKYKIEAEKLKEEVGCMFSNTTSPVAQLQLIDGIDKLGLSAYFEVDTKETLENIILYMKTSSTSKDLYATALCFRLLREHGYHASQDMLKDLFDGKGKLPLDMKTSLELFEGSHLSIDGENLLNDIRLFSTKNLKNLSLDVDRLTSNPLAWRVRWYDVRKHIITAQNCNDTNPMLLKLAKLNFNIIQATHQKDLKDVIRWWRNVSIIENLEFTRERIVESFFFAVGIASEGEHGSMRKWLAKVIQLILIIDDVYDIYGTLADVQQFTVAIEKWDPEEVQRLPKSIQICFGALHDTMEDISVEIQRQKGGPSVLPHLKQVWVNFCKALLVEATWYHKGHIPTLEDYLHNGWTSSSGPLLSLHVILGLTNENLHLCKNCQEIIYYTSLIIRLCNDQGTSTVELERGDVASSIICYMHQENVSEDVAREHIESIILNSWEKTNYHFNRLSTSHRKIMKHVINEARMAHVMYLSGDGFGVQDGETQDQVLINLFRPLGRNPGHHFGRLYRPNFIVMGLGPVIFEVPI
# [8] = target: T8, TPS36 (Solanum lycopersicum, UniProt G5CV42); assay: in vitro assay, GC-MS of products; settings: product mostly cis-muurola-3,5-diene
# T8 construct: recombinant, E. coli pET32b or pET28a, His-tagged, purified, putative transit peptide removed (mitochondrial enzyme)
# [9] = target: T9, TPS33 (Solanum lycopersicum, UniProt G5CV44); assay: in vitro assay, GC-MS of products; settings: several sesquiterpene products
# T9 construct: recombinant, E. coli pET32b or pET28a, His-tagged, purified
# T9 sequence (G5CV44 1-552): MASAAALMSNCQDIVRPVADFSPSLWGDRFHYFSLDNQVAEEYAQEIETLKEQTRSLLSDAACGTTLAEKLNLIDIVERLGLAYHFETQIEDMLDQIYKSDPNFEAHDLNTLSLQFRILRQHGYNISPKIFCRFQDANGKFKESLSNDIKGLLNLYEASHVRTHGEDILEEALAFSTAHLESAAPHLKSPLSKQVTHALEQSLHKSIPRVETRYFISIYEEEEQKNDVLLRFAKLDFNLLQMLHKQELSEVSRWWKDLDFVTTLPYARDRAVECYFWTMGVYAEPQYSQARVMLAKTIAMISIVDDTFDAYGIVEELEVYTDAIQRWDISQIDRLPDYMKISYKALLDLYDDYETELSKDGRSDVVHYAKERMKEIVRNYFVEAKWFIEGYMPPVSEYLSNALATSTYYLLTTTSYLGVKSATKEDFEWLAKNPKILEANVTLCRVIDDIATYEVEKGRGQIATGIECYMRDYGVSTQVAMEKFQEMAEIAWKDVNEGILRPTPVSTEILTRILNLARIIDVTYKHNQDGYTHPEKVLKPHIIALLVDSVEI
# [10] = target: T10, TPS35 (Solanum lycopersicum, UniProt G5CV43); assay: in vitro assay, GC-MS of products; settings: product predominantly Z,Z-farnesol
# T10 construct: recombinant, E. coli pET32b or pET28a, His-tagged, purified
# T10 sequence (G5CV43 1-556): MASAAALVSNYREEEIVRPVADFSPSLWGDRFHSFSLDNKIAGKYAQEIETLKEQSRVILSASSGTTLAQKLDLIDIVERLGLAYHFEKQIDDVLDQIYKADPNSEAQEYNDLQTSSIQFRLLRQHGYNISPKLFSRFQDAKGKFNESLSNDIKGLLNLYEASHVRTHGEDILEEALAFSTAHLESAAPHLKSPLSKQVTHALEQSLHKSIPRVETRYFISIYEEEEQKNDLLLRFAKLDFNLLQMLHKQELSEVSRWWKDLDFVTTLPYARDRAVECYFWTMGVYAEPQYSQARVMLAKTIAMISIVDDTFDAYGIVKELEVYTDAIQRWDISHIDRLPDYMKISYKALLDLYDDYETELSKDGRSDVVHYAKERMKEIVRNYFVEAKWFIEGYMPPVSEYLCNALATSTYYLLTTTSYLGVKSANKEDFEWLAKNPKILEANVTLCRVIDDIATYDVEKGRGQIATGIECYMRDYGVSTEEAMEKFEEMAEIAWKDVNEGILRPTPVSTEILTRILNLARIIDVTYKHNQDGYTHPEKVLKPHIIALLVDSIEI
# [11] = target: T11, TPS28 (Solanum lycopersicum, UniProt G5CV47); assay: in vitro assay, GC-MS of products; settings: product unidentified sesquiterpene
# T11 construct: recombinant, E. coli pET32b or pET28a, His-tagged, purified
# T11 sequence (G5CV47 1-554): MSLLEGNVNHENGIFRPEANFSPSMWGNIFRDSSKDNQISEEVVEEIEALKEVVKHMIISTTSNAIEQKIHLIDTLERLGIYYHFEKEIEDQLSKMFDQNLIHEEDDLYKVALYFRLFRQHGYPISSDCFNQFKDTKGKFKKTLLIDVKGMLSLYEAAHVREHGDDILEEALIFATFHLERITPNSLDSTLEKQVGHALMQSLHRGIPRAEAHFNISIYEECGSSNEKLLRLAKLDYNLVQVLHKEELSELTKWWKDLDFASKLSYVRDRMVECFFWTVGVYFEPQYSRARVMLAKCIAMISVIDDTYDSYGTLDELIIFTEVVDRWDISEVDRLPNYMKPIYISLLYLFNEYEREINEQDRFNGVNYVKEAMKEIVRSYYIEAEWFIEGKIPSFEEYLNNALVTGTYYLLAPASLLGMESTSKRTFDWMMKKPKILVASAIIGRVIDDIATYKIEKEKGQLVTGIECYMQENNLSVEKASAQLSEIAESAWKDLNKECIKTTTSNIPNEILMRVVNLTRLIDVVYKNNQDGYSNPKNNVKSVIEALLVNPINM
# T8 sequence (G5CV42 entry or part of it): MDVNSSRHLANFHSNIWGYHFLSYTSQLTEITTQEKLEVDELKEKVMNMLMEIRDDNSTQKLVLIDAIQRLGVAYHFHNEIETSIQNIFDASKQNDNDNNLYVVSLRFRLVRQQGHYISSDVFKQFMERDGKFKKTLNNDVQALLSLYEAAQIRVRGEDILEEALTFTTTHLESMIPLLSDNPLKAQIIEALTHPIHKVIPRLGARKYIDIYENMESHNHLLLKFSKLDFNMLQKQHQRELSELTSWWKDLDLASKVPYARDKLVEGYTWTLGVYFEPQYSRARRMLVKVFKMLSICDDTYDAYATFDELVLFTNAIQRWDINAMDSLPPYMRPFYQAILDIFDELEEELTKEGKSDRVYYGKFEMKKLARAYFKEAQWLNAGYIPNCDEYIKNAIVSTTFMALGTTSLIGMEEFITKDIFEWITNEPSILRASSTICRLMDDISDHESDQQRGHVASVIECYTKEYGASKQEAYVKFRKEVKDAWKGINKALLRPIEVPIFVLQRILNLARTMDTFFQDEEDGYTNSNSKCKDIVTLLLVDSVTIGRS
# T2 sequence (Q1A7T0 60-365): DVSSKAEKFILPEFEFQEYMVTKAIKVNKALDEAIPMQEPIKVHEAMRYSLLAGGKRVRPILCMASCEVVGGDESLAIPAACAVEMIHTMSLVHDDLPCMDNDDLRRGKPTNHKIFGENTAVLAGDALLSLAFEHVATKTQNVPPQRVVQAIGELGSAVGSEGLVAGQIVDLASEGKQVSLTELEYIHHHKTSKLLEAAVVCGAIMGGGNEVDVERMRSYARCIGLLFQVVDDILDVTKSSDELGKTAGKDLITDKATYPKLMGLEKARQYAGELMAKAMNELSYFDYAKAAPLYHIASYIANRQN
# T3 sequence (Q1A7S9 57-363): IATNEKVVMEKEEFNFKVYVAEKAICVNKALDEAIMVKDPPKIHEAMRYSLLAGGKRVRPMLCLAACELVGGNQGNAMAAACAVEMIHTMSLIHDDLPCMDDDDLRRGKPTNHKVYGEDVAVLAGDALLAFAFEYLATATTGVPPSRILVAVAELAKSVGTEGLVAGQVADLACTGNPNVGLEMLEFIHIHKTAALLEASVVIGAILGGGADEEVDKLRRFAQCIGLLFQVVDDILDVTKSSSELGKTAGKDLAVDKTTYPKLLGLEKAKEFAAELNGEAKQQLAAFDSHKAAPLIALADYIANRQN
structure (smiles),measurement,setting,value
CC(C)=CCOP(=O)(O)OP(=O)(O)O [DMAPP],"in vitro assay, headspace SPME GC-MS",[1],"When tested in vitro, TPS47 catalysed the formation of isoprene from DMAPP"
same,"in vitro prenyltransferase assay, products hydrolysed, GC-MS",[2],affinity-purified His-tagged recombinant proteins were incubated with IPP and DMAPP
same,"in vitro prenyltransferase assay, products hydrolysed, GC-MS",[3],affinity-purified His-tagged recombinant proteins were incubated with IPP and DMAPP
"CC(C)=CCC/C(C)=C/CC/C(C)=C/COP(=O)(O)OP(=O)(O)O [E,E-FPP]","in vitro assay, GC-MS of products",[4]; product mostly E-nerolidol,"catalysed the formation of mostly E-nerolidol from E,E-FPP"
same,"in vitro assay, GC-MS of products",[5],"TPS27 had activity only with E,E-FPP to form α-farnesene"
same,"in vitro assay, GC-MS of products",[6]; product mostly E-nerolidol,"catalysed the formation of mostly E-nerolidol from E,E-FPP"
CC(C)=CCC/C(C)=C/COP(=O)(O)OP(=O)(O)O [GPP],"in vitro assay, GC-MS of products",[7],"TPS25 had activity only with GPP as the substrate, producing mostly β-ocimene"
"CC(C)=CCC/C(C)=C\CC/C(C)=C\COP(=O)(O)OP(=O)(O)O [Z,Z-FPP]","in vitro assay, GC-MS of products",[4]; several sesquiterpene products,"α-bisabolene, β-bisabolene and Z-β-farnesene) from Z,Z-FPP"
same,"in vitro assay, GC-MS of products",[8],"TPS36 only had activity using Z,Z-FPP and produced mostly cis-muurola-3,5-diene"
same,"in vitro assay, GC-MS of products",[9],"When assayed with Z,Z-FPP, TPS33 made several sesquiterpenes"
same,"in vitro assay, GC-MS of products",[10],"while TPS35 made predominantly Z,Z-farnesol"
same,"in vitro assay, GC-MS of products",[11],"TPS28 and TPS48 also catalysed the formation of a major sesquiterpene from Z,Z-FPP"
same,"in vitro assay, GC-MS of products",[6]; several sesquiterpene products,"α-bisabolene, β-bisabolene and Z-β-farnesene) from Z,Z-FPP"
